Reference: PMC7181245, “Antiestrogenic Activity and Possible Mode of Action of Certain New Nonsteroidal Coumarin-4-acetamides” (Molecules, 2020)
Read-outs that look alike come from different tables or passages of the source.

How the values were obtained:
[1] = system: MCF-7 cell line (ER+ breast cancer cell line); test: MTT cytotoxicity assay, MCF-7 cell line; conditions: for IC50: Homo sapiens, MCF7, read-out: IC50 (μM) ± S.E.M MCF-7 (cytotoxicity)
Experimental: (§1) The cytotoxic activity of the synthesized compounds IIIa–h was evaluated in vitro against the human breast adenocarcinoma MCF7 (ER^+ breast cancer cell line) and the MDA-MB-231 (triple-negative breast cancer cell line, TNBC), using camptothecin as a pyranone-bearing reference standard.
(§2) The cytotoxicity of compounds Ia,b, IIa,b, and IIIa–h against the MCF-7 cell line (ER+ breast cancer cell line) and MDA-MB-231 (triple-negative breast cancer cell line, TNBC) was determined using camptothecin as a pyranone-bearing reference standard.

[2] = system: MDA-MB-231 (triple-negative breast cancer cell line, TNBC); test: MTT cytotoxicity assay, MDA-MB-231 cell line
Experimental: as §1, §2

[3] = system: estrogen-dependent human breast cancer MCF-7 cell proliferation induced by 17-β-estradiol; test: In vitro antiestrogenic activity: MCF-7 cell proliferation assay (MTT) in the presence of 17-β-estradiol; assay type: cell-based; conditions: inhibition of MCF-7 cell proliferation induced by 17-β-estradiol, read-out: IC50 (μM) ± S.E.M. MCF-7 (in vitro antiestrogenic activity)
Experimental: The in vitro antiestrogenic activity of the selected target compounds IIIa,b, IIId, and IIIf,g was studied through an estrogen-dependent human breast cancer MCF-7 cell proliferation assay in the presence of 17-β-estradiol. The ability of the tested compounds to inhibit cell proliferation induced by 17-β-estradiol was determined (Table 3 and Figure 4).
The antiestrogenic activity of the test compounds was examined by performing a 3-(4,5-dimethylthiazol-2-yl)-2,5-diphenyl tetrazolium bromide (MTT) assay of the MCF-7 cell line. In this experiment, MCF-7 cells were treated with 17β-estradiol (+ve cell proliferation compound). The effect of various concentrations of the tested compounds on cell proliferation in the presence of 17β-estradiol was measured.

[4] = target: T1, aromatase (Homo sapiens, UniProt P11511); test: In vitro aromatase inhibition (sandwich enzyme immunoassay); conditions: for IC50: IC50 (μM) ± S.E.M. (aromatase inhibition activity)
T1 sequence (P11511 1-503): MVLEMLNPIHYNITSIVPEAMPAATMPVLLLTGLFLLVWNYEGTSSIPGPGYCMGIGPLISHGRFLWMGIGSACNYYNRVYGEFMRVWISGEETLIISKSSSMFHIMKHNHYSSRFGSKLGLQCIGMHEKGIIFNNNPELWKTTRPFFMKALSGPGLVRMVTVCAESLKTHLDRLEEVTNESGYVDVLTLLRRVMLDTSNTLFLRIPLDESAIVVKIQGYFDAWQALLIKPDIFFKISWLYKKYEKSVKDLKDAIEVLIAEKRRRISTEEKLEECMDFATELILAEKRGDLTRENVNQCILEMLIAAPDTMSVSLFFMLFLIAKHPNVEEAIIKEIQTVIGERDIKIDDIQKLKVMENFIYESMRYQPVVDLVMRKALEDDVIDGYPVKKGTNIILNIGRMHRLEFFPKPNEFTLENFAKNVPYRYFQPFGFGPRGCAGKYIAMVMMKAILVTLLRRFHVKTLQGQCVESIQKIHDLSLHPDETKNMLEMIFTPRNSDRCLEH
Description: Sandwich enzyme immunoassay was adopted for aromatase inhibition assessment [38].

[5] = system: MCF-7; set-up: method as in PMID 9391160, PMID 15177442; conditions: cited from earlier work
[6] = Homo sapiens, MDA-MB-231, read-out: IC50 (μM) ± S.E.M MDA-MB-231 (cytotoxicity), MTT assay, MDA-MB-231 cells
[7] = ratio of IC50 values vs camptothecin

IC50 ([3]; Homo sapiens, MCF7)	melting point	IC50 [4]	Compound	IC50 [1]	IC50 [2, 6]	also measured
			CC[C@@]1(O)C(=O)OCc2c1cc1n(c2=O)Cc2cc3ccccc3nc2-1 [Camptothecin, reference compound]	4.41 ± 0.28 µM	19.2 ± 1.14 µM	
62 ± 4.02 µM	167 to 168 °C	22.5 ± 3.4 µM	COc1ccc2oc(=O)cc(CC(=O)N3CCCCC3)c2c1 [IIIa, 6-Methoxy-4-(2-oxo-2-(piperidin-1-yl)ethyl)-2H-chromen-2-one]	1.82 ± 0.03 µM	38.2 ± 1.52 µM	
29.5 ± 3.25 µM	135 to 136 °C	89.1 ± 6.2 µM	COc1ccc2c(CC(=O)N3CCCCC3)cc(=O)oc2c1 [IIIb, 7-Methoxy-4-(2-oxo-2-(piperidin-1-yl)ethyl)-2H-chromen-2-one]	0.32 ± 0.04 µM	12.9 ± 1.17 µM	potency relative to the reference standard camptothecin, MCF-7 [1, 7]: about 14 fold
	219 to 220 °C	1100 ± 52.4 µM	COc1ccc2oc(=O)cc(CC(=O)Nc3ccccc3)c2c1 [IIIc, 2-(6-Methoxy-2-oxo-2H-chromen-4-yl)-N-phenylacetamide]	10.9 ± 0.99 µM	4.6 ± 0.32 µM	
214 ± 12.1 µM	202 to 203 °C	69.9 ± 3.91 µM	COc1ccc2oc(=O)cc(CC(=O)Nc3ccc(Br)cc3)c2c1 [IIId, N-(4-Bromophenyl)-2-(6-methoxy-2-oxo-2H-chromen-4-yl)acetamide]	2.8 ± 0.04 µM	22.8 ± 1.54 µM	
	173 to 174 °C	17.4 µM	COc1ccc2oc(=O)cc(CC(=O)Nc3ccc(OC)c(O)c3)c2c1 [IIIe, N-(3-Hydroxy-4-methoxyphenyl)-2-(6-methoxy-2-oxo-2H-chromen-4-yl)acetamide]	15.5 ± 1.24 µM	2.1 µM	IC50 ([2]; human): 2.14 ± 0.06 µM; aromatase inhibition activity (in words) [4]: moderate inhibitory activity
99.6 ± 6.39 µM	217 to 218 °C	332 ± 18.2 µM	COc1ccc2c(CC(=O)Nc3ccccc3)cc(=O)oc2c1 [IIIf, 2-(7-Methoxy-2-oxo-2H-chromen-4-yl)-N-phenylacetamide]	5.69 ± 0.08 µM	6.9 µM	IC50 ([2]; human): 6.94 ± 0.41 µM
64.4 ± 4.12 µM	212 to 213 °C	27.1 ± 1.38 µM	COc1ccc2c(CC(=O)Nc3ccc(Br)cc3)cc(=O)oc2c1 [IIIg, N-(4-Bromophenyl)-2-(7-methoxy-2-oxo-2H-chromen-4-yl)acetamide]	0.72 ± 0.02 µM	90.8 ± 3.84 µM	
	188 to 189 °C		COc1ccc2c(CC(=O)Nc3ccc(OC)c(O)c3)cc(=O)oc2c1 [IIIh, N-(3-Hydroxy-4-methoxyphenyl)-2-(7-methoxy-2-oxo-2H-chromen-4-yl)acetamide]	5100 ± 241 µM	14.1 ± 0.61 µM	
	178 to 179 °C	32.2 ± 2.39 µM	COc1ccc2oc(=O)cc(CC(=O)O)c2c1 [IIa, (6-Methoxy-2-oxo-2H-chromen-4-yl)acetic acid]	1 ± 0.03 µM	80.2 ± 4.23 µM	
			COc1ccc2c(CC(=O)O)cc(=O)oc2c1 [IIb, (7-methoxy-2-oxo-2H-chromen-4-yl)acetic acid]	8.08 ± 0.25 µM	216 ± 13.2 µM	
	153 to 154 °C		COC(=O)Cc1cc(=O)oc2ccc(OC)cc12 [Ia, Methyl (6-methoxy-2-oxo-2H-chromen-4-yl)acetate]	13.9 ± 1.15 µM	47.5 ± 2.51 µM	
		14.5 ± 1.32 µM	COC(=O)Cc1cc(=O)oc2cc(OC)ccc12 [Ib, Methyl (7-methoxy-2-oxo-2H-chromen-4-yl)acetate]	1.44 ± 0.02 µM	1 ± 0.04 µM	potency relative to the reference standard camptothecin, MDA-MB-231 [2, 7]: about 19 times
			CC(C)COC(=O)c1ccccc1C(=O)O [Monoisobutyl phthalate (MIBP), Monoisobutyl phthalate, reference compound]			IC50 [3]: 46.4 ± 3.14 µM
			O=c1oc2cc(O)ccc2c(Cc2ccc(OCCN3CCCCC3)cc2)c1-c1ccccc1 [SP500263]			agonist activity in the MCF-7 proliferation assay [5]: undesirable agonist activity
